What was measured:
[1] = target: T1, human 72 kDa gelatinase catalytic domain (GCD), reconstructed 19 kDa protein lacking propeptide, C-terminal domain and fibronectin-like insert, Seq ID No: 1 (Homo sapiens, UniProt P08253, DEL214-387); assay: Inhibition of GCD cleavage of thiopeptolide by amino acid derivatives; format: biochemical; details: for GCD IC50: 17.3 nM GCD, 100 μM thiopeptolide, 10 mM CaCl2, 10 μM ZnCl2, MOPS pH 7.0; for GCD Ki: derived from IC50 by Ki=IC50/(1+[substrate]/Km), substrate 100 μM, Km 134 μM
T1 construct: starting at Ala at position -2 and ending at Ile at 168; made in house; host or cells: E. coli BL21(DE3)/pLysS
Procedure: The 100 μL assay mixture typically contained 50 mM MOPS (pH 7.0), 1 mM DTNB, 100 μM thiopeptolide, 10 mM CaCl2, 10 μM ZnCl2, and the enzyme.
The compounds tested for GCD inhibition were obtained from Bachem. […] Inhibition was initially tested at inhibitor concentrations of 100 and 500 μM. […] The determinations were repeated three times.

[2] = target: stromelysin catalytic domain (SCD), C-terminally truncated human stromelysin, Seq ID No: 2 (Homo sapiens, UniProt P08254); details: taken from Ye Q. Z., et al., J. Med. Chem., 1994;37:206-209; cited from earlier work
[3] = target: fluorogenic peptide Dnp-Pro-Leu-Gly-Leu-Trp-Ala-D-Arg-NH2
[4] = target: fluorogenic peptide Mca-Pro-Leu-Gly-Leu-Dpa-Ala-Arg-NH2
[5] = target: thiopeptolide Ac-Pro-Leu-Gly-thioester-Leu-Leu-Gly-OEt

T1 sequence (P08253 with tags, fused parts or gaps DEL214-387): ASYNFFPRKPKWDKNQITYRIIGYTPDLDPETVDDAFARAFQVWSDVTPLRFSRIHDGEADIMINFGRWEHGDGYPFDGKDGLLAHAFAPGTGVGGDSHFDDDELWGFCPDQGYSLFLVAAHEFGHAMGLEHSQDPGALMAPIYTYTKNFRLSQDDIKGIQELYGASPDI
stromelysin catalytic domain (SCD), C-terminally truncated stromelysin (enzyme), sequence (P08254 100-273 limits assumed): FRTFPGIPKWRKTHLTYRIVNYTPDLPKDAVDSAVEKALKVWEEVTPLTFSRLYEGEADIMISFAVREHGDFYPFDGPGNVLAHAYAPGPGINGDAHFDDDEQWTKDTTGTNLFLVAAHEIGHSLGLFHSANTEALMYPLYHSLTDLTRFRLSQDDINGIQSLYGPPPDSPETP
stromelysin catalytic domain (SCD), C-terminally truncated human stromelysin, Seq ID No: 2, sequence (P08254 100-273): as the sequence (P08254 100-273 limits assumed) above

Row | GCD IC50 [1] [µM] | GCD Ki [1] [µM] | Molecule | IC50 [2] [µM] | also measured
1 | 57 ± 4 | 33 | CC(C)(C)OC(=O)N[C@@H](Cc1c[nH]c2ccccc12)C(=O)O [Compound 5, Boc-L-Trp-OH] | – | –
2 | > 500 | – | CC(C)(C)OC(=O)N[C@H](Cc1c[nH]c2ccccc12)C(=O)O [Compound 6, Boc-D-Trp-OH] | 100 to 500 | –
3 | 10.4 ± 0.4 | 6.0 | O=C(N[C@@H](Cc1ccc(O)cc1)C(=O)O)OCc1ccccc1 [Compound 7, Cbz-L-Tyr-OH] | – | –
4 | > 500 | – | O=C(N[C@H](Cc1ccc(O)cc1)C(=O)O)OCc1ccccc1 [Compound 8, Cbz-D-Tyr-OH] | – | –
5 | 21 ± 1 | 12 | O=C(N[C@@H](Cc1ccccc1)C(=O)O)OCc1ccccc1 [Compound 9, Cbz-L-Phe-OH] | – | –
6 | 100 to 500 | – | O=C(N[C@H](Cc1ccccc1)C(=O)O)OCc1ccccc1 [Compound 10, Cbz-D-Phe-OH] | > 500 | –
7 | – | – | human 72 kDa gelatinase catalytic domain protein (GCD), without propeptide, C-terminal domain and fibronectin-like insert (enzyme) | – | Catalytic efficiency kcat/Km in cleaving the fluorogenic peptide [3]: 112000 M⁻¹ s⁻¹; Catalytic efficiency kcat/Km in cleaving the fluorogenic peptide [4]: 184000 M⁻¹ s⁻¹; Catalytic efficiency kcat/Km in cleaving the thiopeptolide [5]: 119000 M⁻¹ s⁻¹
8 | – | – | stromelysin catalytic domain (SCD), C-terminally truncated stromelysin (enzyme) | – | Catalytic efficiency kcat/Km in cleaving the fluorogenic peptide [3]: 13700 M⁻¹ s⁻¹; Catalytic efficiency kcat/Km in cleaving the fluorogenic peptide [4]: 10000 M⁻¹ s⁻¹; Catalytic efficiency kcat/Km in cleaving the thiopeptolide [5]: 7840 M⁻¹ s⁻¹

Row | Molecule | GCD IC50 [1] [µM] | GCD Ki [1] [µM] | IC50 [2] [µM] | also measured
9 | N[C@@H](Cc1c[nH]c2ccccc12)C(=O)O [Compound 3, H-L-Trp-OH] | > 500 | – | > 500 | GCD inhibition (in words) ([1]; tested at 100 and 500 μM): not active
10 | N[C@H](Cc1c[nH]c2ccccc12)C(=O)O [Compound 4, H-D-Trp-OH] | > 500 | – | > 500 | –
